Experimental data as given in patent US20160338351A1, “(S)-ABSCISIC ACID DERIVATIVES FOR ENHANCED GRAPE COLORATION” (Valent BioSciences Corporation, priority 2015, published 2016).
“Also recorded” adds a separate entry of the source. Structures can show the parent of a compound that is named as a salt.

How the values were obtained:
Assay type in all cases: in vivo, Vitis vinifera
[1] = tested on: Crimson Seedless grape clusters; assay: Field study, Example 1: visual rating of red grape coloration, % of berries with marketable color
Protocol: (§1) A field study was conducted in California to compare the efficacy of S-ABA to 3′-methyl-(S)-ABA in promoting red grape coloration. S-ABA and 3′-methyl-(S)-ABA were formulated as aqueous solutions of the corresponding potassium salt to the desired concentrations with the final pHs being between 6.5 and 7.2. Individual Crimson Seedless grape clusters were selected and tagged, with 20 tagged clusters per treatment. The treatments were applied as cluster-directed sprays using a trigger sprayer at 15 to 20 mL per cluster to ensured good coverage of the grapes. Application of 15 to 20 milliliters per cluster simulates application of about 109 gallons per acre directed at the approximately 40 clusters per vine in a vineyard with 518 vines per acre. Based on these estimates, Applicant determined the approximate grams per acre. The equation is as follows: 20 ml/cluster×40 cluster/vine=800 ml/vine×518 vine/acre=(414,400 ml/acre)/(1000 ml/liter)=414 liters/acre. An estimation of grams per acre was made by multiplying the mg per cluster with 20,720 clusters/acre (40 clusters/vine×518 vines/acre=20,720 clusters/acre).
(§2) Periodically after the treatments, the grape clusters were evaluated for color development by visual ratings over a six-week period. The coloration was graded on a 1 to 8 grading scale, where a rating of 1 has very little or no red color and a rating of 8 has a deep or dark red color. The percentages of berries that reached marketable red coloration for each cluster were averaged and recorded for each treatment. Additionally, representative berries from each treatment group were harvested about four weeks after treatment and analyzed for anthocyanin content.

Crimson Seedless grapes = assay: Trial, Example 2: visual color rating of grape clusters on a 1 to 8 scale; design: key to Color Ratings: 1 = little/no red color, 8 = deep/dark red color; details: for Color Ratings: applied day 0 and day 11, 1 to 8 grading scale; for red color development in comparison with the untreated control: six-week evaluation period
Protocol: Another trial was conducted in California on Crimson Seedless grapes to compare the efficacy of S-ABA, 3′-methyl-(S)-ABA and 3′-propargyl-(S)-ABA in promoting coloration. All three compounds were formulated as aqueous solutions of the corresponding potassium salt to the desired concentrations, with the final pHs being between 6.5 and 7.2. Individual Crimson Seedless grape clusters were selected and tagged, with 20 tagged clusters per treatment. The solutions were applied as cluster-directed sprays using a trigger sprayer at 15 to 20 milliliters per cluster which ensured good coverage of the grapes. The treatments were applied on day 0 and day 11 of the trial. Periodically during the trial, the grape clusters were evaluated for color development by visual ratings over a six-week period and the coloration was graded on a 1 to 8 grading scale, where a rating of 1 has very little or no red color and a rating of 8 has a deep or dark red color.

[2] = tested on: Crimson Seedless grape clusters; assay: Field study, Example 1: anthocyanin content of berries harvested about four weeks after treatment; details: berries harvested about four weeks after treatment
Protocol: as §1, §2

CC1=CC(=O)CC(C)(C)[C@@]1(O)/C=C/C(C)=C/C(=O)O [S-ABA, K^+ salt, (S)-abscisic acid]
Coloring Ratings, % of the berries with marketable color ([1]; 200 ppm, 3-4 mg/cluster, 60-80 grams/acre, 7 DAT): 41% | Coloring Ratings, % of the berries with marketable color ([1]; 200 ppm, 3-4 mg/cluster, 60-80 grams/acre, 14 DAT): 78% | Coloring Ratings, % of the berries with marketable color ([1]; 200 ppm, 3-4 mg/cluster, 60-80 grams/acre, 27 DAT): 84% | Coloring Ratings, % of the berries with marketable color ([1]; 200 ppm, 3-4 mg/cluster, 60-80 grams/acre, 33 DAT): 88% | Coloring Ratings, % of the berries with marketable color ([1]; 200 ppm, 3-4 mg/cluster, 60-80 grams/acre, 43 DAT): 89% | Coloring Ratings, % of the berries with marketable color ([1]; 400 ppm, 6-8 mg/cluster, 120-160 grams/acre, 7 DAT): 47% | Coloring Ratings, % of the berries with marketable color ([1]; 400 ppm, 6-8 mg/cluster, 120-160 grams/acre, 14 DAT): 80% | Coloring Ratings, % of the berries with marketable color ([1]; 400 ppm, 6-8 mg/cluster, 120-160 grams/acre, 27 DAT): 85% | Coloring Ratings, % of the berries with marketable color ([1]; 400 ppm, 6-8 mg/cluster, 120-160 grams/acre, 33 DAT): 88% | Coloring Ratings, % of the berries with marketable color ([1]; 400 ppm, 6-8 mg/cluster, 120-160 grams/acre, 43 DAT): 91% | time to reach ~90% marketable coloration ([1]; 400 ppm, 6 to 8 mg per cluster): five weeks; also recorded: five or six weeks | Color Ratings (Crimson Seedless grapes; 200 ppm, 3-4 mg/cluster, 60-80 g/acre, 3 DAT): 1 | Color Ratings (Crimson Seedless grapes; 200 ppm, 3-4 mg/cluster, 60-80 g/acre, 10 DAT): 2.2 | Color Ratings (Crimson Seedless grapes; 200 ppm, 3-4 mg/cluster, 60-80 g/acre, 14 DAT): 2.6 | Color Ratings (Crimson Seedless grapes; 200 ppm, 3-4 mg/cluster, 60-80 g/acre, 21 DAT): 4.1 | Color Ratings (Crimson Seedless grapes; 200 ppm, 3-4 mg/cluster, 60-80 g/acre, 31 DAT): 5.1 | Color Ratings (Crimson Seedless grapes; 200 ppm, 3-4 mg/cluster, 60-80 g/acre, 41 DAT (end of six-week evaluation)): 5.4 | Color Ratings (Crimson Seedless grapes; 400 ppm, 6-8 mg/cluster, 120-160 g/acre, 3 DAT): 1 | Color Ratings (Crimson Seedless grapes; 400 ppm, 6-8 mg/cluster, 120-160 g/acre, 10 DAT): 2.9 | Color Ratings (Crimson Seedless grapes; 400 ppm, 6-8 mg/cluster, 120-160 g/acre, 14 DAT): 3.5 | Color Ratings (Crimson Seedless grapes; 400 ppm, 6-8 mg/cluster, 120-160 g/acre, 21 DAT): 4.5 | Color Ratings (Crimson Seedless grapes; 400 ppm, 6-8 mg/cluster, 120-160 g/acre, 31 DAT): 5.9 | Color Ratings (Crimson Seedless grapes; 400 ppm, 6-8 mg/cluster, 120-160 g/acre, 41 DAT (end of six-week evaluation)): 6.4 | red color development in comparison with the untreated control (Crimson Seedless grapes): dose-dependent accelerated red color development | Total Anthocyanin Content ([2]; 3-4 mg/cluster (200 ppm, 15-20 mL)): 73 mg/L | Total Anthocyanin Content ([2]; 6-8 mg/cluster (400 ppm, 15-20 mL)): 83 mg/L

C#CCC1=C(C)[C@](O)(/C=C/C(C)=C\C(=O)O)C(C)(C)CC1=O [3′-propargyl-(S)-ABA, K^+ salt, (2Z,4E)-5-((S)-1-hydroxy-2,6,6-trimethyl-4-oxo-3-(prop-2-yn-1-yl)cyclohex-2-en-1-yl)-3-methylpenta-2,4-dienoic acid]
Color Ratings (Crimson Seedless grapes; 4 ppm, 0.06-0.08 mg/cluster, 1.2-1.6 g/acre, 3 DAT): 1.1 | Color Ratings (Crimson Seedless grapes; 4 ppm, 0.06-0.08 mg/cluster, 1.2-1.6 g/acre, 10 DAT): 1.3 | Color Ratings (Crimson Seedless grapes; 4 ppm, 0.06-0.08 mg/cluster, 1.2-1.6 g/acre, 14 DAT): 1.5 | Color Ratings (Crimson Seedless grapes; 4 ppm, 0.06-0.08 mg/cluster, 1.2-1.6 g/acre, 21 DAT): 1.9 | Color Ratings (Crimson Seedless grapes; 4 ppm, 0.06-0.08 mg/cluster, 1.2-1.6 g/acre, 31 DAT): 2.4 | Color Ratings (Crimson Seedless grapes; 4 ppm, 0.06-0.08 mg/cluster, 1.2-1.6 g/acre, 41 DAT): 2.4 | Color Ratings (Crimson Seedless grapes; 20 ppm, 6-8 g/acre, 3 DAT): 1.1 | Color Ratings (Crimson Seedless grapes; 20 ppm, 6-8 g/acre, 10 DAT): 1.5 | Color Ratings (Crimson Seedless grapes; 20 ppm, 6-8 g/acre, 14 DAT): 1.8 | Color Ratings (Crimson Seedless grapes; 20 ppm, 6-8 g/acre, 21 DAT): 2.2 | Color Ratings (Crimson Seedless grapes; 20 ppm, 6-8 g/acre, 31 DAT): 2.9 | Color Ratings (Crimson Seedless grapes; 20 ppm, 6-8 g/acre, 41 DAT): 3.1 | Color Ratings (Crimson Seedless grapes; 40 ppm, 0.6-0.8 mg/cluster, 12-16 g/acre, 3 DAT): 1.1 | Color Ratings (Crimson Seedless grapes; 40 ppm, 0.6-0.8 mg/cluster, 12-16 g/acre, 10 DAT): 1.5 | Color Ratings (Crimson Seedless grapes; 40 ppm, 0.6-0.8 mg/cluster, 12-16 g/acre, 14 DAT): 1.8 | Color Ratings (Crimson Seedless grapes; 40 ppm, 0.6-0.8 mg/cluster, 12-16 g/acre, 21 DAT): 2.6 | Color Ratings (Crimson Seedless grapes; 40 ppm, 0.6-0.8 mg/cluster, 12-16 g/acre, 31 DAT): 3.1 | Color Ratings (Crimson Seedless grapes; 40 ppm, 0.6-0.8 mg/cluster, 12-16 g/acre, 41 DAT (end of six-week evaluation)): 3.3 | potency in promoting red color development compared with another compound (Crimson Seedless grapes; Crimson Seedless grapes): less potent than 3′-methyl-(S)-ABA | red color development in comparison with the untreated control (Crimson Seedless grapes): accelerated coloration
